Experimental data from patent US20060229255A1, “Identification of n-alkylglycine trimers for induction of apoptosis” (priority 2003, published 2006).

Experiments:
Cdk4/CycD1 = target: T1, Cdk4/CycD1 (Homo sapiens, UniProt P11802); assay: 33PanQinase Cdk4/CycD1 kinase assay (pRb phosphorylation); type: biochemical; conditions: 3 μM or 30 μM
T1 construct: GST; host or cells: Sf9 insect cells, baculovirus
Experimental: ^33Pan Qinase assays containing cycD, Cdk4 and pRb protein in the presence of 3 μM or 30 μM, N10-13-10C or N13-13-10C, were performed.
To assay Cdk4/CycD1 kinase activity, Cdk4 was expressed in Sf9 insect cells as recombinant GST-fusion protein by means of baculovirus expression system. Kinase assay was performed in 96-well FlashPlates (NEN) in a 50 μl reaction volume using the ^33PanQinase activity assay (ProQinase) and Beckman Coulter/Sagian robotic system. The reaction cocktail was 20 μl of assay buffer (50 mM Hepes-NaOH pH 7.5, 3 mM MgCl2, 3 mM MnCl2, 3 μM Na-orthovanadate, 1 mM DTT, 0.1 μM […]); 1 μg pRb protein; 100 ng enzyme; and 5 μl of test compound in 10% DMSO. The reaction cocktail was incubated at 30° C. for 80 min. The reaction was stopped with 50 μl of 0.2% (v/v) H3PO4, plates were aspirated and washed two times with 0.9% (w/v) NaCl. Incorporation of ^33P was determined with a microplate scintillation counter (Microbeta, Wallac).

cycA-Cdk2 = cycA-Cdk2 (Homo sapiens, UniProt P24941); assay: In vitro kinase assay for Cdk2; type: biochemical; conditions: 3 μM or 30 μM
Experimental: We had observed that cycA protein levels and pRb hypophosphorylation decrease in cell extracts of N10-13-10C or N13-13-10C treated cells (FIG. 8). To assess whether these compounds were direct inhibitors of Cdk2 activity, in vitro kinase assays for Cdk2 were performed.
Kinase assays for testing of Cdk2/CycA-E kinase activity. ELISA plates were blocked with 200 μl of blocking solution (PBS containing 1% BSA, 0.02% Tween and 0.02% sodium Azide) overnight at 4° C. Plates were then subsequently washed 3 times, 5 min each with 100 μl of washing solution (PBS containing 0.02% Tween and 0.02% sodium Azide). Plates were then dried during 2-4 h at room temperature. Kinase assay was performed in kinase buffer (Hepes 25 mM pH 7.4 and MgCl2 10 mM) containing 4 μg of histone H1, 30 μM ATP, 2 mM DTT, 0.1 μl of ATP-P^32, 800 nM GST-CDK2, and 800 nM of GST-cyclin A in a final volume of 60 μl. Assays were carried out in the presence or absence of different concentrations of peptide mixtures to be checked. A inhibitory control was performed adding 800 nM of p21 to the reaction media. Mixtures were incubated for 30 min at 37° C. After incubation, 50 μl of each mixture was filtered in nitrocellulose membranes placed in a dot blot apparatus. […] The radioactivity associated to the membranes was detected with a “Phosphor-imager”.

pRb, p21Cip1, p27Kip1 = assay: Western blot of G0/G1 checkpoint proteins in HT29 cells; type: cell-based, human; conditions: for pRb levels compared to controls: HT29, after 24 h in culture
Experimental: Western blotting. Floating and adherent cells were harvested and pellets were resuspended in RIPA buffer (50 mM Tris/HCl 7.4, 250 mM NaCl, 0,5% Igepal CA630, 5 mM EDTA, 1 mM PMSF, 10 μg/ml leupeptin, 50 mM NaF, 0.1 mM Na3VO4) or Deoxycholate buffer (10 mM phosphate buffer 7.4, […] NaCl, 0.5% Deoxycholate, 1% Igepal, 0.1% SDS, 1 mM PMSF). Protein concentration was determined with BCA Protein Assay Kit (Pierce) for RIPA extracts or Bradford assay (BioRad) for Deoxycholate extracts. Total protein (20-30 μg/lane) were separated by SDS-PAGE, transferred to PVDF membranes (Gellman), and probed with antibodies against Bcl-xL (Transduction); Bax (Santa Cruz); JNK (Santa Cruz); phospho-JNK (Cell Signaling); pRb (Pharmingen); pRb-phospho Ser780 (Cell Signalling); p130 (Santa Cruz); p107 (Santa Cruz); Cdk2 (Santa Cruz); p27^Kip1 (Santa Cruz); p21^Cip1 (Santa Cruz); actin (Sigma); or tubulin (ICN) and developed with ECL system (AmershamPharmacia biotech)
FIG. 8. Expression of protein involved in G0/G1 checkpoint. (A.) HT29 cells were treated for 1, 3, 6 and 24 h with N10-13-10C (40 μM) or N13-13-10C (35 µM), harvested and immunoblotted to assess total pRb levels or Cdk4 specific phosphorylation at pRb-Ser^780 (PpRb). Western blot was first probed with the pRb-Ser^780 phosphorylation specific antibody, was stripped and reprobed with the pan-pRb antibody and tubulin to normalize total protein level. (B.) T98 g cells were synchronized by serum starvation and reinitiated with 10% FCS and DMSO (C), N13-13-10C (100 μM) or Taxol (30 nM) for 15, 17, 24 or 29 h. Western blot of total protein extracts was probed with antibodies to p130, pRb, p107, Cdk2, cycA, p27, p21 and actin. Unphosphorylated, hypophosphorylated as well as hyperphosphorylated pRb are detected (arrows). (C.) HT29 cells treated for 24 and 48 h with N13-13-10C (40 μM) or DMSO as control. Immunoblots were stained with antibodies to Cdk2, cycA, p21, p27 and actin.

T1 sequence (P11802 whole entry): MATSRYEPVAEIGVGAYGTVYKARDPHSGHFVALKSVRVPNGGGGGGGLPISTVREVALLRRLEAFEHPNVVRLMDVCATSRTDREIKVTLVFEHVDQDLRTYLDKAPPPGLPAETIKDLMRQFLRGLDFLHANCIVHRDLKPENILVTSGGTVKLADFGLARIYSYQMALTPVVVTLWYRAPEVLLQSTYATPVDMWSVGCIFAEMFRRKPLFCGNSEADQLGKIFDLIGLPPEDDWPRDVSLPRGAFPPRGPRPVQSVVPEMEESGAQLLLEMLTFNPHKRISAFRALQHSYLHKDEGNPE
T1 sequence (P24385 whole entry partner): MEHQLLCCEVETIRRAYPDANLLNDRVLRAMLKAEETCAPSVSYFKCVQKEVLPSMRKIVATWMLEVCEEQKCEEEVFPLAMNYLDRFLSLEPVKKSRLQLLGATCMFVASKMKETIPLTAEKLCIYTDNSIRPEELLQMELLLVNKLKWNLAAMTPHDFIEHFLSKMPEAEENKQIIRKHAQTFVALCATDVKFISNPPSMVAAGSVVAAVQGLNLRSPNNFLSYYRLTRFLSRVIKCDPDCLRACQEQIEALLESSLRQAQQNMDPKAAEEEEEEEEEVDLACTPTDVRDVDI

Compound | Inhibition of pRb phosphorylation by cycD/Cdk4 (Cdk4/CycD1) | Inhibition of cycA-Cdk2 kinase activity (cycA-Cdk2) | pRb levels compared to controls (pRb, p21Cip1, p27Kip1) | pRb phosphorylation at Ser780 respect to total pRb levels (pRb, p21Cip1, p27Kip1; HT29, 35 μM, 1-24 h) | p21Cip1 expression (pRb, p21Cip1, p27Kip1; HT29, 24 h and 48 h) | p27Kip1 expression (pRb, p21Cip1, p27Kip1; HT29, 24 h and 48 h)
COc1ccc(CCN(CC(=O)N(CCc2ccccc2)CC(N)=O)C(=O)CNCCc2ccccc2)cc1 [N10-13-10C] | No inhibition | Neither of both compounds was able to inhibit | decreased | – | – | –
COc1ccc(CCNCC(=O)N(CCc2ccc(OC)cc2)CC(=O)N(CCc2ccccc2)CC(N)=O)cc1 [N13-13-10C] | No inhibition | Neither of both compounds was able to inhibit | decreased | did not decrease | Over expression | Over expression
